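Interpolation was linear, between the two tested concentrations surrounding the appropriate level; five concentrations were tested over 48 hours in 96-well plates. At the GI50, growth is halved. TGI: concentration producing complete growth inhibition.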 Bounds are passed on as bounds.

Common to all, as to assay: NCI tumour cell line growth inhibition, 48 h
Assay [1] has as its system HCT-116 colon.
In assay [2] the test system is IGROV1 ovarian.
Assay [3] concerns KM12 colon.
Assay [4] relates to LOX IMVI melanoma.
Assay [5] relates to M14 melanoma.
Assay [6] has as its system RPMI-8226 leukemia.
For assay [7], the system named is SF-268 CNS.
In assay [8] the test system is SK-MEL-28 melanoma.
The test system of assay [9] is T-47D breast.
For assay [10], the system named is U251 CNS.

Turning to `CC(=O)c1cccc(NC(=O)C(=O)c2c(O)c3ccccc3oc2=O)c1`, the TGI in [1], in assay [2], in assay [3], in assay [4], in assay [5] and in [6] was greater than 100 µM each time. For the same compound, the TGI in assay [7], in assay [8], in [9] and in [10] was greater than 100 µM throughout.
As for `Cn1c(=O)n(C)c2cc(CNCCNc3ccnc4cc(Cl)ccc34)ccc21`, the GI50 is 17.9 µM in assay [1]; 37400 nM in assay [2]; 37300 nM in assay [3]; 14300 nM in assay [4]; 20900 nM in assay [6]; 29.4 µM in [7]. Moreover, the figures for the GI50 in assay [8], in [9] and in [10] were 16000 nM, 28300 nM and 22100 nM, respectively. Moreover, the TGI in assay [1] is 54.5 µM; in [2] it was greater than 100 µM; in assay [3], greater than 100 µM; in [4], 30.1 µM; in assay [6] it was 65.6 µM; in [7] it was greater than 100 µM. Further, the TGI in [8] was found to be 30.2 µM; in [9], 86.5 µM; in assay [10], 72.1 µM.
Turning to `NC(=O)c1cccnc1`, the GI50 was greater than 100 µM in [1]; greater than 100000 nM in assay [3]; greater than 100000 nM in assay [4]; greater than 100000 nM in [5]; greater than 100000 nM in [6]; greater than 100 µM in assay [7]. The GI50 in assay [8], in assay [9] and in assay [10] was greater than 100000 nM each time. The TGI in [1], in assay [3], in [4], in [5], in assay [6] and in assay [7] was greater than 100 µM in each case. For the same compound, the TGI in [8], in assay [9] and in assay [10] was greater than 100 µM each time.
Take `CO[C@H]1/C=C/O[C@@]2(C)Oc3c(C)c(O)c4c(O)c(c(/C=N/N5CCN(C)CC5)c(O)c4c3C2=O)NC(=O)/C(C)=C\C=C\[C@H](C)[C@H](O)[C@@H](C)[C@@H](O)[C@@H](C)[C@H](OC(C)=O)[C@@H]1C`: the TGI in assay [1], in assay [2], in assay [3], in assay [5], in assay [6] and in assay [8] was greater than 100 µM throughout. In [9], this compound came in with a TGI greater than 100 µM.
On to `COc1ccc(C(=O)c2sc3nc(-c4ccccc4OC)ccc3c2N)cc1OC`, for which the GI50 in assay [1] is 5.55 µM; in assay [2] it was 20300 nM; in [3], 9670 nM; in assay [5], 6050 nM; in [6], 2700 nM; in assay [7] it was 11.9 µM. In addition, the GI50 is greater than 100000 nM in assay [8], 2950 nM in assay [9] and 14200 nM in assay [10]. For the same compound, the TGI in assay [1], in [2], in assay [3], in assay [5], in assay [6] and in [7] was greater than 100 µM throughout. Also, the TGI in assay [8], in assay [9] and in assay [10] was greater than 100 µM throughout.
For `C=C1C(=O)OC2C1CCC(C)C1(O)C=CC(=O)C21C` (stereo not given), the TGI in assay [1], in [2], in assay [3], in [4], in assay [6] and in assay [7] was greater than 10 µM throughout. Also, the TGI in assay [8], in assay [9] and in assay [10] was greater than 10 µM each time.
Regarding `C/C(=C(/c1ccccc1)c1ccc(OCC(O)CNCCN2CCOCC2)cc1)c1ccccc1` (stereo not given), the GI50 in assay [1] was 1.86 µM; in assay [2] it was 3970 nM; in assay [3], 2730 nM; in assay [4] it was 1720 nM; in assay [5] it was 1880 nM; in assay [7], 4 µM. In addition, the GI50 in assay [8] was 1750 nM; in assay [9], 3490 nM; in assay [10], 2030 nM. Further, the TGI was determined as 4.02 µM in [1]; 15 µM in assay [2]; 8.33 µM in [3]; 3.12 µM in [4]; 3.85 µM in assay [5]; 15.4 µM in assay [7]. Moreover, the TGI in assay [8] stood at 3.25 µM; in assay [9] it was 11.3 µM; in assay [10] it was 4.52 µM.
For `COc1ccc2c(c1)CN([C@@H](C)[C@H]1CC[C@H]3[C@@H]4CC[C@H]5C[C@@H](O)CC[C@]5(C)[C@H]4CC[C@]13C)CO2`, the TGI worked out at 7.22 µM in assay [1]; 14.6 µM in assay [2]; 4.31 µM in assay [3]; 3.54 µM in assay [5]; 1.97 µM in assay [6]; 7.38 µM in assay [7]. Moreover, the TGI in [8] turned out to be 5.98 µM; in assay [9], 18.3 µM; in assay [10], 3.35 µM.
With `CCCc1nc(Cl)nc(Cl)c1Cl`, the TGI was 1.3 µM in [1]; 2.14 µM in [2]; 2.77 µM in assay [3]; 1.62 µM in assay [4]; 1.13 µM in [5]; 4.17 µM in assay [7]. For the same compound, the TGI in assay [8] amounted to 2.05 µM; in [9], 4.49 µM; in assay [10] it was 2.05 µM.
For `CCOC(=O)c1sc(-c2ccc(OS(=O)(=O)C[C@]34CCC(CC3=O)C4(C)C)c(C=O)c2)nc1C`, the GI50 in assay [2] was 1070 nM; in assay [3], 1300 nM; in [4], 1050 nM; in [5], 1090 nM; in [6], 822 nM; in assay [7], 0.954 µM. Moreover, the values for the GI50 in assay [8], in assay [9] and in assay [10] were 982 nM, 780 nM and 694 nM, respectively. Moreover, the TGI in assay [2] was 2.85 µM; in assay [3] it was 3.54 µM; in assay [4] it was 2.34 µM; in assay [5], 2.45 µM; in assay [6], 3.19 µM; in [7] it was 2.47 µM. For the same compound, the TGI in assay [8] came to 2.12 µM; in assay [9], 2.46 µM; in assay [10], 1.43 µM.
`CC(C)(C)NCC(O)COc1c(Br)c(Br)c(Br)c2c1OC(C)(C)C2` (stereo not given): the GI50 in assay [2] was 1770 nM; in assay [3], 1820 nM; in assay [4], 1680 nM; in assay [5], 1810 nM; in assay [6], 1450 nM; in [7], 1.73 µM. The figures for the GI50 in assay [8], in [9] and in assay [10] were 1810 nM, 1650 nM and 1920 nM, respectively. Also, the TGI in assay [2] came out at 3.36 µM; in assay [3] it was 3.4 µM; in assay [4] it was 3.1 µM; in assay [5], 3.66 µM; in assay [6] it was 3.09 µM; in [7] it was 3.38 µM. Also, the TGI in assay [8] was 3.29 µM; in assay [9], 3.59 µM; in assay [10] it was 3.41 µM.
On to `Cc1cc(NCc2cc(Nc3ccnc4cc(Cl)ccc34)ccc2F)nc(N2CCOCC2)n1`, for which the GI50 in assay [2] is 1930 nM; in [3] it was 2010 nM; in assay [6] it was 1810 nM; in [7], 3.08 µM; in assay [9] it was 1790 nM; in assay [10], 1950 nM. Moreover, the TGI in assay [2] amounted to 5.11 µM; in assay [3], 4.59 µM; in assay [6], 5.58 µM; in [7] it was 18 µM; in assay [9] it was 4.26 µM; in assay [10], 4.05 µM.
With `COc1ccc(-c2cnnn2-c2nonc2-n2cccc2)cc1OC`, the GI50 in [1] is 4.19 µM; in [2], 5130 nM; in [3], 2730 nM; in [5], 3280 nM; in assay [6], 4850 nM; in assay [7], 8.06 µM. In addition, the figures for the GI50 in assay [8] and in assay [9] were 7740 nM and 3790 nM, respectively. Moreover, the TGI in assay [1], in assay [2], in assay [3], in assay [5], in assay [6] and in [7] was greater than 100 µM in each case. In addition, the TGI in assay [8] and in [9] was greater than 100 µM in each case.
Turning to `CC(=O)/C=C/c1ccc(Nc2c3ccccc3nc3occ(Cl)c23)cc1`, the GI50 was 4.83 µM in [1]; greater than 100000 nM in [3]; 4490 nM in [5]; 3.16 µM in [7]; 15100 nM in [8]; 4820 nM in assay [9]. In addition, in assay [10], the GI50 is 2330 nM. For the same compound, the TGI is 17.6 µM in assay [1]; greater than 100 µM in assay [3]; 18.2 µM in assay [5]; 17.5 µM in assay [7]; greater than 100 µM in assay [8]; 76.3 µM in [9]. This compound also gave a TGI in [10] of 6.83 µM.
Turning to `C=C1C(=O)O[C@H]2[C@H]1CC/C(COC(=O)NCc1ccc(Cn3c(=O)sn(CCCCC)c3=O)cc1)=C\CC[C@@]1(C)O[C@@H]21`, the GI50 was 1.73 µM in [1]; 2110 nM in assay [2]; 2230 nM in assay [3]; 1590 nM in [4]; 1890 nM in assay [5]; 1.88 µM in assay [7]. In addition, the GI50 in assay [8] is 1850 nM; in assay [9], 1750 nM; in assay [10], 2200 nM. Further, the TGI amounted to 3.7 µM in [1]; 4.8 µM in [2]; 4.94 µM in [3]; 2.96 µM in [4]; 4.76 µM in [5]; 3.97 µM in assay [7]. Also, the TGI in assay [8] stood at 3.47 µM; in assay [9] it was 4 µM; in [10], 4.93 µM.
In the case of `CN(C)N1C(=O)SCC(c2ccccc2)(c2ccccc2)C1=O`, the TGI in [1], in [3], in [4], in [5], in assay [6] and in assay [7] was greater than 100 µM each time. Moreover, the TGI in assay [8], in assay [9] and in [10] was greater than 100 µM throughout.
As to `COc1cc(C2=NN(C(C)=O)C(c3cc(OC)c(OC)c(OC)c3)C2)ccc1O` (stereo not given), the GI50 is 0.385 µM in assay [1]; 584 nM in assay [2]; 320 nM in assay [3]; 618 nM in assay [4]; 342 nM in assay [5]; 311 nM in assay [6]. In addition, the GI50 was 0.539 µM in [7], 478 nM in [8] and 420 nM in assay [10]. The TGI was greater than 73.6 µM in [1]; greater than 100 µM in assay [2]; greater than 100 µM in assay [3]; greater than 100 µM in assay [4]; greater than 100 µM in assay [5]; 4.03 µM in [6]. For the same compound, the TGI in [7], in assay [8] and in [10] was greater than 100 µM each time.
Take `CC1=Nc2ccccc2SC(c2c(Cl)cccc2Cl)C1` (stereo not given): the TGI in assay [1] worked out at 0.616 µM; in [2], 3.31 µM; in assay [3] it was 2.15 µM; in [4], 1.04 µM; in assay [5], 3.07 µM; in assay [6] it was 3.09 µM. Besides, the TGI in [7] was 2.73 µM; in assay [8], 2.69 µM; in assay [10], 1.14 µM.
As for `COc1ccc(/C=C(\NC(=O)c2ccccc2)c2nc3ccccc3[nH]2)cc1OC`, the TGI in assay [1], in assay [2], in [3], in assay [4], in [5] and in [6] was greater than 100 µM in each case. Further, the TGI in assay [7], in [8] and in [10] was greater than 100 µM in each case.
In the case of `Cc1ccc(S(=O)(=O)c2nc(-c3ccccc3)oc2S(C)(=O)=O)cc1`, the GI50 in assay [1] is 1.78 µM; in assay [3], 13000 nM; in assay [4], 1590 nM; in [5], 1740 nM; in assay [6], 2330 nM; in [7], 10.6 µM. Besides, the results for the GI50 in assay [8], in assay [9] and in assay [10] were 1920 nM, 1870 nM and 5880 nM, respectively. Besides, the TGI in assay [1] was 3.25 µM; in assay [3], 27.2 µM; in assay [4], 2.99 µM; in [5], 3.63 µM; in [6], 5.88 µM; in assay [7], 24.4 µM. Also, the TGI in [8] turned out to be 3.77 µM; in assay [9] it was 3.93 µM; in assay [10], 18.3 µM.

These data come from PubChem BioAssay (NCI).
